# Laboratory results as given in patent US11713338B2, “Cyclic peptides multimers targeting α-4-β-7 integrin” (priority 2016, dated 2023).
# Target: T1, integrin α4β1 (RAMOS human cells adhering to VCAM-1) (Homo sapiens, UniProt P05556+P13612)
# T1 construct: Ramos cells, which express integrin α4β1; host or cells: RAMOS
# Assay: Integrin α4β1-VCAM cell adhesion assay (RAMOS cells)
# Type: cell-based
# Conditions: for IC50: Ramos cells adhering to VCAM, read-out: Ramos Adhesion α4β1/VCAM IC50; for Ratio Ramos/RPMI: ratio of cell adhesion IC50s, Ramos α4β1/VCAM over RPMI8866 α4β7/MAdCAM
# Experimental: Integrin α4β1-VCAM Cell Adhesion Assay
# The plate was incubated overnight at 4° C. and washed twice with 150 μl per well wash buffer (0.05% Tween 20 in PBS), blocked with 250 μl per well blocking buffer (1% non-fat dry milk in PBS), for 1 hour at room temperature. During blocking step, RAMOS cells were resuspended at 10 million cells/ml in PBS containing […] and incubated at 37° C. for 30 min in a 50 ml tube. […] The plate was emptied by inverting and blotting on paper towels and washed manually twice with PBS. […] To calculate the dose response, the fluorescence value of control wells not containing cells was subtracted from each test well.
# T1 sequence (P13612 34-1032): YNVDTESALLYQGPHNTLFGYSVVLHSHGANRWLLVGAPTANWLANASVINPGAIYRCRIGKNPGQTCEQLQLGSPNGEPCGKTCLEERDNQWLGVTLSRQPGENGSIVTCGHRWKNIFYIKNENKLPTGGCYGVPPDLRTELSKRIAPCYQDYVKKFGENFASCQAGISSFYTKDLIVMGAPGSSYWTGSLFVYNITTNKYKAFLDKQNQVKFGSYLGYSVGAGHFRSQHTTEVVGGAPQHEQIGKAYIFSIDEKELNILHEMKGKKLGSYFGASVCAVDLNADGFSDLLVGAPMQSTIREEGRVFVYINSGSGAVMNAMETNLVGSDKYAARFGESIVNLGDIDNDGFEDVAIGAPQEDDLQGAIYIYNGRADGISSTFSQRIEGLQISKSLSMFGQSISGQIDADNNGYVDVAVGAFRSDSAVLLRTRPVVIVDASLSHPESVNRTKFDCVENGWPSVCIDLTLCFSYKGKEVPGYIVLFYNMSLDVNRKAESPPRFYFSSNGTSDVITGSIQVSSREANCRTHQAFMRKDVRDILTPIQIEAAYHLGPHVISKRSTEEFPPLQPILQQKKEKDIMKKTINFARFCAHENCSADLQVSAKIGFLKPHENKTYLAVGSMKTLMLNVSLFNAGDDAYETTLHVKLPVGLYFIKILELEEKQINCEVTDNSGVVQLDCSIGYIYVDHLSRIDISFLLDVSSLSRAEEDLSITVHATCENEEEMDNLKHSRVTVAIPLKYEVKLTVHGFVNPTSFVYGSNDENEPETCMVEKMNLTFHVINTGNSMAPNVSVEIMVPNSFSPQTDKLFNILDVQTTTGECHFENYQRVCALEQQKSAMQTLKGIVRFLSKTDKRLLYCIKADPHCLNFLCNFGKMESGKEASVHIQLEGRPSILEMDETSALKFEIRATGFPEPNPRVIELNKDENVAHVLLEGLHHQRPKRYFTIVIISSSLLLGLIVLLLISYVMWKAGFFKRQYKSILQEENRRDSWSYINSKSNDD
# T1 sequence (P05556 21-798): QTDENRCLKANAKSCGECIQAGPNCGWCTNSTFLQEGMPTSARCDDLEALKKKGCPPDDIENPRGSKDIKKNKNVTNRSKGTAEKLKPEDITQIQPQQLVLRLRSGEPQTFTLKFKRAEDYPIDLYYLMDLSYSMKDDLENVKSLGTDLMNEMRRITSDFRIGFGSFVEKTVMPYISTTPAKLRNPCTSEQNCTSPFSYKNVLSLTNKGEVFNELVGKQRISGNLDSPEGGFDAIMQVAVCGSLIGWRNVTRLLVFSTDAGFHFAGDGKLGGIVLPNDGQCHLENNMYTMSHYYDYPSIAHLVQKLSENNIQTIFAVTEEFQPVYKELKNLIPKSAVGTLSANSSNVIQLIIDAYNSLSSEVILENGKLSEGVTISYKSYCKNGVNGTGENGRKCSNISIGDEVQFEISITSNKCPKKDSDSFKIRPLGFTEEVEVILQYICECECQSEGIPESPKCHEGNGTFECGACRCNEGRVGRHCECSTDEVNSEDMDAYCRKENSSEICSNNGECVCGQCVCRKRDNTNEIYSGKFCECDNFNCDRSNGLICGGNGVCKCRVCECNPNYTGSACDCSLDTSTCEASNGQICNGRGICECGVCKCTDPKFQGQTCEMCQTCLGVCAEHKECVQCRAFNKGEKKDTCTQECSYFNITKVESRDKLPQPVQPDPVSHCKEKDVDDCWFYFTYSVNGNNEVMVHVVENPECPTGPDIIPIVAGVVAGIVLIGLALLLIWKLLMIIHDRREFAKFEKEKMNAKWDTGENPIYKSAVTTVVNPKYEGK
SMILES,IC50,Ratio Ramos/RPMI
CC(C)C[C@@H]1NC(=O)C[C@H](CCCCN)N(C)C(=O)[C@H](CCCCNC(=O)CCCCCCCC(=O)NCCCC[C@@H]2NC(=O)[C@@H]3CCCN3[C@H](C(=O)NC(C)(C)C)[C@H](C)NC(=O)[C@H]([C@@H](C)O)NC(=O)[C@H](CC(=O)O)NC(=O)[C@H](CC(C)C)NC(=O)C[C@H](CCCCN)N(C)C2=O)NC(=O)[C@@H]2CCCN2[C@H](C(=O)NC(C)(C)C)[C@H](C)NC(=O)[C@H]([C@@H](C)O)NC(=O)[C@H](CC(=O)O)NC1=O [Compound 533],4230 nM,257
CC(C)C[C@@H]1NC(=O)C[C@H](CCCCN)N(C)C(=O)[C@H](CCCCNC(=O)c2cc(C(=O)NCCCC[C@@H]3NC(=O)[C@@H]4CCCN4[C@H](C(=O)NC(C)(C)C)[C@H](C)NC(=O)[C@H]([C@@H](C)O)NC(=O)[C@H](CC(=O)O)NC(=O)[C@H](CC(C)C)NC(=O)C[C@H](CCCCN)N(C)C3=O)cc(C(=O)NCCCC[C@@H]3NC(=O)[C@@H]4CCCN4[C@H](C(=O)NC(C)(C)C)[C@H](C)NC(=O)[C@H]([C@@H](C)O)NC(=O)[C@H](CC(=O)O)NC(=O)[C@H](CC(C)C)NC(=O)C[C@H](CCCCN)N(C)C3=O)c2)NC(=O)[C@@H]2CCCN2[C@H](C(=O)NC(C)(C)C)[C@H](C)NC(=O)[C@H]([C@@H](C)O)NC(=O)[C@H](CC(=O)O)NC1=O [Compound 538],7650 nM,–
CC(C)C[C@@H]1NC(=O)c2ccc(-c3ccc(N4CCN(c5ncc([N+](=O)[O-])c(N6CCN(c7ccc(-c8ccc9cc8CNC(=O)[C@@H]8CCCN8[C@H](C(=O)NC(C)(C)C)[C@H](C)NC(=O)[C@H]([C@@H](C)O)NC(=O)[C@H](CC(=O)O)NC(=O)[C@H](CC(C)C)NC9=O)cc7)CC6)n5)CC4)cc3)c(c2)CNC(=O)[C@@H]2CCCN2[C@H](C(=O)NC(C)(C)C)[C@H](C)NC(=O)[C@H]([C@@H](C)O)NC(=O)[C@H](CC(=O)O)NC1=O [Compound 468],677 nM,51
CC(C)C[C@@H]1NC(=O)c2ccc(-c3ccc(N4CCN(C(=O)c5ccc(C(=O)N6CCN(c7ccc(-c8ccc9cc8CNC(=O)[C@@H]8CCCN8[C@H](C(=O)NC(C)(C)C)[C@H](C)NC(=O)[C@H]([C@@H](C)O)NC(=O)[C@H](CC(=O)O)NC(=O)[C@H](CC(C)C)NC9=O)cc7)CC6)s5)CC4)cc3)c(c2)CNC(=O)[C@@H]2CCCN2[C@H](C(=O)NC(C)(C)C)[C@H](C)NC(=O)[C@H]([C@@H](C)O)NC(=O)[C@H](CC(=O)O)NC1=O [Compound 470],1110 nM,66
CC(C)C[C@@H]1NC(=O)c2ccc(-c3ccc(N4CCN(C(=O)c5cc(-c6ccccc6)c(C(=O)N6CCN(c7ccc(-c8ccc9cc8CNC(=O)[C@@H]8CCCN8[C@H](C(=O)NC(C)(C)C)[C@H](C)NC(=O)[C@H]([C@@H](C)O)NC(=O)[C@H](CC(=O)O)NC(=O)[C@H](CC(C)C)NC9=O)cc7)CC6)cc5-c5ccccc5)CC4)cc3)c(c2)CNC(=O)[C@@H]2CCCN2[C@H](C(=O)NC(C)(C)C)[C@H](C)NC(=O)[C@H]([C@@H](C)O)NC(=O)[C@H](CC(=O)O)NC1=O [Compound 469],44 nM,–
CC(C)C[C@@H]1NC(=O)c2ccc(-c3ccc(N4CCN(CCC(=O)N5CCN(c6ccc(-c7ccc8cc7CNC(=O)[C@@H]7CCCN7[C@H](C(=O)NC(C)(C)C)[C@H](C)NC(=O)[C@H]([C@@H](C)O)NC(=O)[C@H](CC(=O)O)NC(=O)[C@H](CC(C)C)NC8=O)cc6)CC5)CC4)cc3)c(c2)CNC(=O)[C@@H]2CCCN2[C@H](C(=O)NC(C)(C)C)[C@H](C)NC(=O)[C@H]([C@@H](C)O)NC(=O)[C@H](CC(=O)O)NC1=O [Compound 482],825 nM,–
CC(C)C[C@@H]1NC(=O)c2ccc(-c3ccc(N4CCN(C(=O)CC[C@H](N)C(=O)N5CCN(c6ccc(-c7ccc8cc7CNC(=O)[C@@H]7CCCN7[C@H](C(=O)NC(C)(C)C)[C@H](C)NC(=O)[C@H]([C@@H](C)O)NC(=O)[C@H](CC(=O)O)NC(=O)[C@H](CC(C)C)NC8=O)cc6)CC5)CC4)cc3)c(c2)CNC(=O)[C@@H]2CCCN2[C@H](C(=O)NC(C)(C)C)[C@H](C)NC(=O)[C@H]([C@@H](C)O)NC(=O)[C@H](CC(=O)O)NC1=O [Compound 494],161 nM,3
CC(C)C[C@@H]1NC(=O)c2ccc(-c3ccc(N4CCN(Cc5ccc(CN6CCN(c7ccc(-c8ccc9cc8CNC(=O)[C@@H]8CCCN8[C@H](C(=O)NC(C)(C)C)[C@H](C)NC(=O)[C@H]([C@@H](C)O)NC(=O)[C@H](CC(=O)O)NC(=O)[C@H](CC(C)C)NC9=O)cc7)CC6)cc5)CC4)cc3)c(c2)CNC(=O)[C@@H]2CCCN2[C@H](C(=O)NC(C)(C)C)[C@H](C)NC(=O)[C@H]([C@@H](C)O)NC(=O)[C@H](CC(=O)O)NC1=O [Compound 500],1000 nM,31
CC(C)C[C@@H]1NC(=O)C[C@H](CCCCN)N(C)C(=O)[C@H](CCCCNC(=O)c2ccccc2-c2ccccc2C(=O)NCCCC[C@@H]2NC(=O)[C@@H]3CCCN3[C@H](C(=O)NC(C)(C)C)[C@H](C)NC(=O)[C@H]([C@@H](C)O)NC(=O)[C@H](CC(=O)O)NC(=O)[C@H](CC(C)C)NC(=O)C[C@H](CCCCN)N(C)C2=O)NC(=O)[C@@H]2CCCN2[C@H](C(=O)NC(C)(C)C)[C@H](C)NC(=O)[C@H]([C@@H](C)O)NC(=O)[C@H](CC(=O)O)NC1=O [Compound 535],9510 nM,634
CC(C)C[C@@H]1NC(=O)c2ccc(-c3ccc(N4CCN(C(=O)CCCCCCCCCCC(=O)N5CCN(c6ccc(-c7ccc8cc7CNC(=O)[C@@H]7CCCN7[C@H](C(=O)NC(C)(C)C)[C@H](C)NC(=O)[C@H]([C@@H](C)O)NC(=O)[C@H](CC(=O)O)NC(=O)[C@H](CC(C)C)NC8=O)cc6)CC5)CC4)cc3)c(c2)CNC(=O)[C@@H]2CCCN2[C@H](C(=O)NC(C)(C)C)[C@H](C)NC(=O)[C@H]([C@@H](C)O)NC(=O)[C@H](CC(=O)O)NC1=O [Compound 392],1840 nM,65
CC(C)C[C@@H]1NC(=O)C[C@H](CCCCN)N(C)C(=O)[C@H](CCCCNC(=O)CCOCCOCCOCCOCCOCCOCCOCCC(=O)NCCCC[C@@H]2NC(=O)[C@@H]3CCCN3[C@H](C(=O)NC(C)(C)C)[C@H](C)NC(=O)[C@H]([C@@H](C)O)NC(=O)[C@H](CC(=O)O)NC(=O)[C@H](CC(C)C)NC(=O)C[C@H](CCCCN)N(C)C2=O)NC(=O)[C@@H]2CCCN2[C@H](C(=O)NC(C)(C)C)[C@H](C)NC(=O)[C@H]([C@@H](C)O)NC(=O)[C@H](CC(=O)O)NC1=O [Compound 536],7820 nM,479
COc1cc(C(=O)N2CCN(c3ccc(-c4ccc5cc4CNC(=O)[C@@H]4CCCN4[C@H](C(=O)NC(C)(C)C)[C@H](C)NC(=O)[C@H]([C@@H](C)O)NC(=O)[C@H](CC(=O)O)NC(=O)[C@H](CC(C)C)NC5=O)cc3)CC2)cc(-c2ccc(C(=O)N3CCN(c4ccc(-c5ccc6cc5CNC(=O)[C@@H]5CCCN5[C@H](C(=O)NC(C)(C)C)[C@H](C)NC(=O)[C@H]([C@@H](C)O)NC(=O)[C@H](CC(=O)O)NC(=O)[C@H](CC(C)C)NC6=O)cc4)CC3)cc2F)c1 [Compound 464],1550 nM,–
CC(C)C[C@@H]1NC(=O)c2ccc(-c3ccc(N4CCN(CC(=O)N5CCN(c6ccc(-c7ccc8cc7CNC(=O)[C@@H]7CCCN7[C@H](C(=O)NC(C)(C)C)[C@H](C)NC(=O)[C@H]([C@@H](C)O)NC(=O)[C@H](CC(=O)O)NC(=O)[C@H](CC(C)C)NC8=O)cc6)CC5)CC4)cc3)c(c2)CNC(=O)[C@@H]2CCCN2[C@H](C(=O)NC(C)(C)C)[C@H](C)NC(=O)[C@H]([C@@H](C)O)NC(=O)[C@H](CC(=O)O)NC1=O [Compound 481],940 nM,26
